Patent US20090105349A1, “ANDROGEN MODULATORS” (WARNER-LAMBERT COMPANY LLC, priority 2004, published 2009)

Key:
[1] = biological target: T1, hAR (human androgen receptor) (Homo sapiens, UniProt P10275); test: Competitive hAR binding assay with 3H-DHT tracer; conditions: baculovirus/Sf9 hAR extract, 1 nM 3H-DHT, one hour at 4° C; mean of multiple tests; read-out: AR Binding IC50
T1 construct: made in house; host or cells: baculovirus/Sf9 insect cells (crude extract)
T1 sequence (P10275 1-920): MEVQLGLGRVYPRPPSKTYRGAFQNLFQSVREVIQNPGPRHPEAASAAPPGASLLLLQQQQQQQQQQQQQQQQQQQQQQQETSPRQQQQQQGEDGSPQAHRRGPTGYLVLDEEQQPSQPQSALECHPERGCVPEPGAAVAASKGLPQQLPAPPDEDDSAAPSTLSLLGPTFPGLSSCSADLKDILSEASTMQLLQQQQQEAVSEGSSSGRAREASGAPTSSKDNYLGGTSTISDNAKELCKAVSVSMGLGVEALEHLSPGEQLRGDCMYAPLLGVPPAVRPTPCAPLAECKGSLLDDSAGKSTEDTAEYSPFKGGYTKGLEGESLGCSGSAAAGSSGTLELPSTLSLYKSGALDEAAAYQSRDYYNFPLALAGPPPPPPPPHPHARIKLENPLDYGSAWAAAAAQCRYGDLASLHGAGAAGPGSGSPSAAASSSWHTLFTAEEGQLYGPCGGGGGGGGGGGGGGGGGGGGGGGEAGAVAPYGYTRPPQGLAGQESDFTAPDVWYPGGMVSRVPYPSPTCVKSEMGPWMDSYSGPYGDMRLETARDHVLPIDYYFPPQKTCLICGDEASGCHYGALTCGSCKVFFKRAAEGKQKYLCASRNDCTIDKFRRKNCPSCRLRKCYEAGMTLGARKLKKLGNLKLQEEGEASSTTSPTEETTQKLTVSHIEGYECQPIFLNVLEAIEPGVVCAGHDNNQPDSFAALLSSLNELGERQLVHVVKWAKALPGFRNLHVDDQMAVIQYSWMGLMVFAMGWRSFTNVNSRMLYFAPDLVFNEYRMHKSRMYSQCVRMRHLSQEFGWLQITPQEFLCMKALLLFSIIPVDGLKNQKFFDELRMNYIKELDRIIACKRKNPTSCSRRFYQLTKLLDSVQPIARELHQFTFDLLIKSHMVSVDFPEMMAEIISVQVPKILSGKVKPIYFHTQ

[2] = tested on: male C3H/HeN mice (telogen to anagen conversion); type: in vivo; conditions: mouse, in vivo
Text: While this model is a significant improvement over the telogen conversion assay as a model for human baldness, it suffers from a number of practical disadvantages. The macaques are expensive, relatively rare, labor intensive to maintain, and require long wash out periods between testing. […] Thus, the model relates to a modification of the existing telogen conversion assay. Male C3H/HeN mice approximately 7 weeks old are utilized. These animals are also uniformly in telogen, like their female counterparts. However, once shaven, the androgens inherently present in these male mice inhibit the conversion of the hair follicles to the anagen phase. An anti-androgen will block this androgenic effect and the follicles will convert to anagen, like their female counterparts.
The compounds shown below in Table IV were submitted for further testing utilizing the modified telogen conversion assay, described above. The testing was carried out in the following manner.
Male C3H/HeN mice, 6 to 7 weeks old (Charles River Laboratories, Raleigh, N.C.) were used for the study. Fur was clipped from the dorsal region of the mice prior to initiation of the study. Only mice with pink skin, a visual indication of the telogen phase, were selected for inclusion in the study.
A second group of animals received only the vehicle to serve as a control. Treatments were applied twice daily for 4 weeks.
The hair growth response was quantified by recording, for each animal, the day on which signs of hair growth first appeared over the treated area. The first sign of anagen was the darkening of skin color as melanocytes in the follicles started to synthesize melanin in preparation for the production of pigmented hairs. […] The day on which anagen was initiated in 50% of the test animals for both the treatment group and the vehicle group is reported below in Table IV.

CSc1ccccc1Oc1ccc(C#N)cc1Cl [Example 5, 3-Chloro-4-(2-methylsulfanyl-phenoxy)-benzonitrile]
IC50 [1]: 311 nM
Anagen-Trx (day on which anagen was initiated in 50% of the test animals) [2]: >35 days
